Key:
SpTPC1 = molecular target: T1, SpTPC1 (Strongylocentrotus purpuratus, UniProt B8PXJ8); assay: […]NAADP competition binding on immunoprecipitate; conditions: competitor against [32P]NAADP; immunopurified native complex; K+-dependent irreversible binding
T1 construct: endogenous full-length protein immunoprecipitated with anti-SpTPC1 serum from solubilized egg membranes (S10P100 fraction); native complex, may carry associated proteins
T1 sequence (B8PXJ8 1-882): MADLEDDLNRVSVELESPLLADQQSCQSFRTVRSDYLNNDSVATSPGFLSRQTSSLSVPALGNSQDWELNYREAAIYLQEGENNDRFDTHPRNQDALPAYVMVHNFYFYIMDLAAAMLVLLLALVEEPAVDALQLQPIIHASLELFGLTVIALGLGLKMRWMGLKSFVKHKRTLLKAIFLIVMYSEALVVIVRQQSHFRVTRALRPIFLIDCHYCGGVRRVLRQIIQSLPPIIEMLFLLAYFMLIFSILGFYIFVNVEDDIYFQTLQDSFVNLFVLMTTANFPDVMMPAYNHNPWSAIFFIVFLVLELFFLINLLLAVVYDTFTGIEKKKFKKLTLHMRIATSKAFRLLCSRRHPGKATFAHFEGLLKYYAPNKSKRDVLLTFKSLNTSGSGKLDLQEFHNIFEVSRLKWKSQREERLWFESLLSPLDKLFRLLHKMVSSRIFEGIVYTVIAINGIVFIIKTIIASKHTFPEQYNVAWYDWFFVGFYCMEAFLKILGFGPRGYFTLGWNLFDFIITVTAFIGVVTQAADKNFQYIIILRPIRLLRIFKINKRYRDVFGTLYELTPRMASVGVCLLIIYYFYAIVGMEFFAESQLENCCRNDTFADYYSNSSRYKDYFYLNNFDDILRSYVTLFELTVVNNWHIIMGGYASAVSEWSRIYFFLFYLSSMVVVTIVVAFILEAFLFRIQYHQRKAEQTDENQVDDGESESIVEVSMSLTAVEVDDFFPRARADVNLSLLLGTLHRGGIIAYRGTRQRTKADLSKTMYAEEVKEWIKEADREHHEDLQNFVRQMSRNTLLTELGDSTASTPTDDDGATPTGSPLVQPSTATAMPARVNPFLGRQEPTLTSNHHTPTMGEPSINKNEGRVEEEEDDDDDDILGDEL

SpTPC3 = molecular target: T2, SpTPC3 (Strongylocentrotus purpuratus, UniProt B8PXK0); assay: as above; conditions: competitor against [32P]NAADP; immunopurified native complex; K+-dependent irreversible binding
T2 construct: endogenous full-length protein immunoprecipitated with anti-SpTPC3 serum from solubilized egg membranes (S10P100 fraction); possibly homodimer; may carry associated proteins
T2 sequence (B8PXK0 1-840): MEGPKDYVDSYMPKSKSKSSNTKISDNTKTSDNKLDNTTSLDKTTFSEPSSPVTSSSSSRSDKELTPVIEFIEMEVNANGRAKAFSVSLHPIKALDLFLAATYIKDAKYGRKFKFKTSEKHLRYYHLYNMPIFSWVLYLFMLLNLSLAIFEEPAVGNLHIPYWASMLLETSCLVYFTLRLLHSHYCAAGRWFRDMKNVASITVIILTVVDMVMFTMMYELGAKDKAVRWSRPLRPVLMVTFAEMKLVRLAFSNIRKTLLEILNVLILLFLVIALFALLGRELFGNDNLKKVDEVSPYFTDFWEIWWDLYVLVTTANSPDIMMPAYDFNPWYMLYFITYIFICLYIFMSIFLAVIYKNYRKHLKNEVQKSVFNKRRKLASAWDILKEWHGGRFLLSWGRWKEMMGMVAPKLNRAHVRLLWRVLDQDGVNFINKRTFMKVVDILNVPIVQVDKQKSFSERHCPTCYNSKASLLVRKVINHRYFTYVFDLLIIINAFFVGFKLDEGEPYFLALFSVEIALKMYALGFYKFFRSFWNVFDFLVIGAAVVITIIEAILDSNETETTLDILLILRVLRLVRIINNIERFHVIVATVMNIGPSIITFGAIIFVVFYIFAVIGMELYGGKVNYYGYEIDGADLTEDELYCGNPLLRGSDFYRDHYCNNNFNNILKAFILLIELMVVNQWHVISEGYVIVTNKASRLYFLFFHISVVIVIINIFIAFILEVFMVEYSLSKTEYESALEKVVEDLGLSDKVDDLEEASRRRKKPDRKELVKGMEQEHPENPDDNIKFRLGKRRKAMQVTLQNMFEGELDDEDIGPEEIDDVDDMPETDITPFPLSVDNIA

IC50 (SpTPC1): 1.4 nM | IC50 (SpTPC3): 0.9 nM
SMILES: Nc1ncnc2c1ncn2[C@@H]1O[C@H](COP(=O)(O)OP(=O)(O)OC[C@H]2O[C@@H]([n+]3cccc(C(=O)O)c3)[C@H](O)[C@@H]2O)[C@@H](O)[C@H]1OP(=O)(O)O [NAADP]
